Numbered stars: 1 amine (or outer) side, 2 acyl side, 3 side chain; on linkers, the order of the positions; unused ones are H or OH. Bridge positions count the residues as written; N and C are the ends. Square brackets hold non-standard residues; d marks the D form. Peptide text beside a SMILES is read from it. X3 = CCc1ccc2c(C[C@H](N[*:1])C(=O)[*:2])c[nH]c2c1; Trp(7-Me) = Cc1cccc2c(C[C@H](N)C(=O)O)c[nH]c12; Trp(2-Me) = Cc1[nH]c2ccccc2c1C[C@H](N)C(=O)O; Abu(4-yl) = O=C([C@H](CC[*:3])N[*:1])[*:2]; 2Nal = N[C@@H](Cc1ccc2ccccc2c1)C(=O)O; AEF = NCCOc1ccc(C[C@H](N)C(=O)O)cc1; Cit = NC(=O)NCCC[C@H](N)C(=O)O; Pen = CC(C)(S)[C@H](N)C(=O)O; αMeK = C[C@](N)(CCCCN)C(=O)O; Dab = NCC[C@H](N)C(=O)O; Aib = CC(C)(N)C(=O)O; βAla = NCCC(=O)O; Sar = CNCC(=O)O
Assays:
Type in all cases: in vitro ADME
[1] = Stability in human fecal homogenate; conditions: 20% fecal homogenate (supernatant), pH 6.8, 20% human fecal homogenate, anaerobic, 37° C., read-out: t½: Human Feces anaerobic (converted)
Experimental: (§1) Centrifuged the homogenate at 2800×g for 15 min. The supernatant is taken out and used for incubations. […] The final test compound concentration was 20 μM.

Stability in rat plasma = conditions: both sexes, SD rat plasma, EDTA, 37° C., read-out: t½: Rat Plasma EDTA (converted)
Experimental: Peptides of interest (20 μM) were incubated with pre-warmed rat plasma (SD rat, mixed gender pooled, EDTA, filtered through 0.22 μm, BioreclamationIVT) at 37° C. […] Quenched samples were stored at 4° C. until the end of the experiment and centrifuged at 4,000 rpm for 10 minutes. The supernatant were diluted 1:1 with deionized water and analyzed using LC-MS. Percentage remaining at each time point was calculated based on the peak area ratio (analyte over internal standard) relative to the initial level at time zero. Half-lives were calculated by fitting to a first-order exponential decay equation using GraphPad.

[2] = Stability in simulated intestinal fluid (SIF); conditions: simulated intestinal fluid with pancreatin, pH 6.8, 37° C., matrix is 100 fold dilution of standard SIF concentration; for SIF t½: 20 μM; for half-life at 20 μM: read-out: SIF t½ (converted)
[3] = Stability in cynomolgus monkey fecal homogenate; conditions: 20% fecal homogenate (supernatant), pH 6.8, 20% cynomolgus monkey fecal homogenate, anaerobic, 37° C., read-out: t½: Monkey Feces anaerobic (converted)
Experimental: as §1

Compound | half-life at 20 μM [1] [h] | half-life at 20 μM (Stability in rat plasma) [h] | SIF t½ [2] [h] | half-life at 20 μM [3] [h] | half-life at 20 μM [2] [h]
CC(=O)NCCCC[C@@H]1NC(=O)[C@H](Cc2c[nH]c3c(C)cccc23)NC(=O)[C@H]([C@@H](C)O)NC(=O)[C@H](CC(N)=O)NC(=O)[C@@H](NC(C)=O)C(C)(C)SSC(C)(C)[C@@H](C(=O)N[C@@H](Cc2ccc(OCCN)cc2)C(=O)N[C@@H](Cc2c(C)[nH]c3ccccc23)C(=O)N[C@@](C)(CCCCN)C(=O)N[C@@H](CCCCNC(C)=O)C(=O)N[C@@H](CC(N)=O)C(=O)N[C@H](CCCCN)C(N)=O)NC1=O [compound 353] (Ac-[Pen]NT[Trp(7-Me)]K(Ac)[Pen][AEF][Trp(2-Me)][αMeK]K(Ac)N[dK]-NH2; disulfide 1-6) | > 24 | > 24 | 24 | > 24 | –
CC(=O)NCCCC[C@@H]1NC(=O)[C@H](Cc2c(C)[nH]c3ccccc23)NC(=O)[C@H]([C@@H](C)O)NC(=O)[C@H](CC(N)=O)NC(=O)[C@@H](NC(C)=O)C(C)(C)SSC(C)(C)[C@@H](C(=O)N[C@@H](Cc2ccc(OCCN)cc2)C(=O)N[C@@H](Cc2ccc3ccccc3c2)C(=O)N[C@@](C)(CCCCN)C(=O)N[C@@H](CCCCNC(C)=O)C(=O)N[C@@H](CC(N)=O)C(=O)N[C@H](CCCCN)C(N)=O)NC1=O [compound 351] | > 24 | > 24 | – | > 24 | 12
CC(=O)NCCCC[C@@H]1NC(=O)[C@H](Cc2c[nH]c3c(C)cccc23)NC(=O)[C@H]([C@@H](C)O)NC(=O)[C@@H]2CCCN2C(=O)[C@@H](NC(C)=O)C(C)(C)SSC(C)(C)[C@@H](C(=O)N[C@@H](Cc2ccc(OCCN)cc2)C(=O)N[C@@H](Cc2ccc3ccccc3c2)C(=O)N[C@@](C)(CCCCN)C(=O)N[C@@H](CCCCNC(C)=O)C(=O)N[C@@H](CC(N)=O)C(=O)N[C@H](CC(C)C)C(N)=O)NC1=O [compound 333] (Ac-[Pen]PT[Trp(7-Me)]K(Ac)[Pen][AEF][2Nal][αMeK]K(Ac)N[dL]-NH2; disulfide 1-6) | > 24 | > 24 | – | 24 | 22
CC(=O)NCCCC[C@@H]1NC(=O)[C@H](Cc2c[nH]c3c(C)cccc23)NC(=O)[C@H]([C@@H](C)O)NC(=O)[C@H](CCNC(C)=O)NC(=O)[C@@H](NC(C)=O)C(C)(C)SSC(C)(C)[C@@H](C(=O)N[C@@H](Cc2ccc(OCCN)cc2)C(=O)N[C@@H](Cc2ccc3ccccc3c2)C(=O)N[C@@](C)(CCCCN)C(=O)N[C@@H](CCCCNC(C)=O)C(=O)N[C@@H](CC(N)=O)C(=O)N[C@H](CC(C)C)C(N)=O)NC1=O [compound 335] (Ac-[Pen][Dab](Ac)T[Trp(7-Me)]K(Ac)[Pen][AEF][2Nal][αMeK]K(Ac)N[dL]-NH2; disulfide 1-6) | > 24 | > 24 | – | > 24 | 20
CC(=O)NCCCC[C@H](NC(=O)[C@](C)(CCCCN)NC(=O)[C@H](Cc1ccc2ccccc2c1)NC(=O)[C@H](Cc1ccc(OCCN)cc1)NC(=O)[C@H]1NC(=O)[C@H](CCCCNC(=O)CCN)NC(=O)[C@H](Cc2c[nH]c3c(C)cccc23)NC(=O)[C@H]([C@@H](C)O)NC(=O)[C@H](CC(N)=O)NC(=O)[C@@H](NC(C)=O)C(C)(C)SSC1(C)C)C(=O)N[C@@H](CC(N)=O)C(=O)N[C@H](CC(C)C)C(N)=O [compound 321] | > 24 | > 24 | 24 | > 24 | –
COc1cccc2c(C[C@@H]3NC(=O)[C@H]([C@@H](C)O)NC(=O)[C@H](CC(N)=O)NC(=O)[C@@H](NC(C)=O)C(C)(C)SSC(C)(C)[C@@H](C(=O)N[C@@H](Cc4ccc(OCCN)cc4)C(=O)N[C@@H](Cc4ccc5ccccc5c4)C(=O)N[C@@](C)(CCCCN)C(=O)N[C@@H](CCCCNC(C)=O)C(=O)N[C@@H](CC(N)=O)C(=O)N[C@H](CCCCN)C(N)=O)NC(=O)[C@H](CCCCNC(C)=O)NC3=O)c[nH]c12 [compound 299] | > 24 | > 24 | 24 | > 24 | –
CC(=O)NCCCC[C@H](NC(=O)[C@](C)(CCCCN)NC(=O)[C@H](Cc1ccc2ccccc2c1)NC(=O)[C@H](Cc1ccc(OCCN)cc1)NC(=O)[C@H]1NC(=O)[C@H](CCCCNC(=O)CC(C)C)NC(=O)[C@H](Cc2c[nH]c3c(C)cccc23)NC(=O)[C@H]([C@@H](C)O)NC(=O)[C@H](CC(N)=O)NC(=O)[C@@H](NC(C)=O)C(C)(C)SSC1(C)C)C(=O)N[C@@H](CC(N)=O)C(=O)N[C@H](CC(C)C)C(N)=O [compound 315] | > 24 | > 24 | 24 | > 24 | –
CC(=O)NCCCC[C@@H]1NC(=O)[C@H](Cc2c[nH]c3c(C)cccc23)NC(=O)[C@H]([C@@H](C)O)NC(=O)[C@H](C)NC(=O)[C@@H](NC(C)=O)C(C)(C)SSC(C)(C)[C@@H](C(=O)N[C@@H](Cc2ccc(OCCN)cc2)C(=O)N[C@@H](Cc2ccc3ccccc3c2)C(=O)N[C@@](C)(CCCCN)C(=O)N[C@@H](CCCCNC(C)=O)C(=O)N[C@@H](CC(N)=O)C(=O)N[C@H](CC(C)C)C(N)=O)NC1=O [compound 328] (Ac-[Pen]AT[Trp(7-Me)]K(Ac)[Pen][AEF][2Nal][αMeK]K(Ac)N[dL]-NH2; disulfide 1-6) | > 24 | > 24 | – | > 24 | 23
CC(=O)NCCCC[C@H](NC(=O)[C@](C)(CCCCN)NC(=O)[C@H](Cc1ccc2ccccc2c1)NC(=O)[C@H](Cc1ccc(OCCN)cc1)NC(=O)[C@H]1NC(=O)[C@H](CCCNC(N)=O)NC(=O)[C@H](Cc2c[nH]c3c(C)cccc23)NC(=O)[C@H]([C@@H](C)O)NC(=O)[C@H](CC(N)=O)NC(=O)[C@@H](NC(C)=O)C(C)(C)SSC1(C)C)C(=O)N[C@@H](CC(N)=O)C(=O)NC(C)(C)C(=O)N[C@@H](C)C(N)=O [compound 342] (Ac-[Pen]NT[Trp(7-Me)][Cit][Pen][AEF][2Nal][αMeK]K(Ac)N[Aib]A-NH2; disulfide 1-6) | 12 | > 24 | – | 15 | 16
CC(=O)NCCCC[C@@H]1NC(=O)[C@H](Cc2c[nH]c3c(C)cccc23)NC(=O)[C@H]([C@@H](C)O)NC(=O)[C@H](CCCNC(=N)N)NC(=O)[C@@H](NC(C)=O)C(C)(C)SSC(C)(C)[C@@H](C(=O)N[C@@H](Cc2ccc(OCCN)cc2)C(=O)N[C@@H](Cc2ccc3ccccc3c2)C(=O)N[C@@](C)(CCCCN)C(=O)N[C@@H](CCCCNC(C)=O)C(=O)N[C@@H](CC(N)=O)C(=O)N[C@H](CC(C)C)C(N)=O)NC1=O [compound 336] (Ac-[Pen]RT[Trp(7-Me)]K(Ac)[Pen][AEF][2Nal][αMeK]K(Ac)N[dL]-NH2; disulfide 1-6) | > 24 | > 24 | – | > 24 | 10
CC(=O)NCCCC[C@@H]1NC(=O)[C@H](Cc2c[nH]c3c(C)cccc23)NC(=O)[C@H]([C@@H](C)O)NC(=O)[C@H](CCC(N)=O)NC(=O)[C@@H](NC(=O)[C@@H](CCCNC(=N)N)NC(C)=O)CCSC[C@@H](C(=O)N[C@@H](Cc2ccc(OCCN)cc2)C(=O)N[C@@H](Cc2ccc3ccccc3c2)C(=O)N[C@@](C)(CCCCN)C(=O)N[C@@H](CCCCNC(C)=O)C(=O)N[C@@H](CC(N)=O)C(=O)N[C@H](CCCCN)C(=O)N(C)CC(N)=O)NC1=O [compound 323] (Ac-[dR][Abu(4-yl)]QT[Trp(7-Me)]K(Ac)C[AEF][2Nal][αMeK]K(Ac)N[dK][Sar]-NH2; thioether 2-7) | > 24 | > 24 | – | 13 | 20
CC(=O)NCCCC[C@H](NC(=O)[C@](C)(CCCCN)NC(=O)[C@H](Cc1ccc2ccccc2c1)NC(=O)[C@H](Cc1ccc(OCCN)cc1)NC(=O)[C@H]1NC(=O)[C@H](CCCNC(N)=O)NC(=O)[C@H](Cc2c[nH]c3c(C)cccc23)NC(=O)[C@H]([C@@H](C)O)NC(=O)[C@H](CC(N)=O)NC(=O)[C@@H](NC(C)=O)C(C)(C)SSC1(C)C)C(=O)N[C@@H](CC(N)=O)C(=O)NC(C)(C)C(=O)NCCC(N)=O [compound 340] (Ac-[Pen]NT[Trp(7-Me)][Cit][Pen][AEF][2Nal][αMeK]K(Ac)N[Aib][βAla]-NH2; disulfide 1-6) | > 24 | > 24 | – | > 24 | 17
CC(=O)NCCCC[C@H](NC(=O)[C@](C)(CCCCN)NC(=O)[C@H](Cc1ccc2ccccc2c1)NC(=O)[C@H](Cc1ccc(OCCN)cc1)NC(=O)[C@H]1NC(=O)[C@H](CCCNC(N)=O)NC(=O)[C@H](Cc2c[nH]c3c(C)cccc23)NC(=O)[C@H]([C@@H](C)O)NC(=O)[C@H](CC(N)=O)NC(=O)[C@@H](NC(C)=O)C(C)(C)SSC1(C)C)C(=O)N[C@@H](CC(N)=O)C(=O)N(C)CC(N)=O [compound 339] (Ac-[Pen]NT[Trp(7-Me)][Cit][Pen][AEF][2Nal][αMeK]K(Ac)N[Sar]-NH2; disulfide 1-6) | > 24 | > 24 | 24 | 18 | –
CCc1ccc2c(C[C@@H]3NC(=O)[C@H]([C@@H](C)O)NC(=O)[C@H](CC(N)=O)NC(=O)[C@@H](NC(C)=O)C(C)(C)SSC(C)(C)[C@@H](C(=O)N[C@@H](Cc4ccc(OCCN)cc4)C(=O)N[C@@H](Cc4ccc5ccccc5c4)C(=O)N[C@@](C)(CCCCN)C(=O)N[C@@H](CCCCNC(C)=O)C(=O)N[C@@H](CC(N)=O)C(=O)N[C@H](CCCCN)C(N)=O)NC(=O)[C@H](CCCCNC(C)=O)NC3=O)c[nH]c2c1 [compound 349] (Ac-[Pen]NT[X3]K(Ac)[Pen][AEF][2Nal][αMeK]K(Ac)N[dK]-NH2; disulfide 1-6) | > 24 | > 24 | 24 | > 24 | –
